For data set [1], the system named is patients with prostatic hypertrophy accompanied with overactive bladder symptoms. The conditions noted are these: cited from earlier work.
Data set [2] deals with Male human patients with prostatic hypertrophy who still had symptoms of overactive bladder. Kind of data set: I-PSS evaluation after four weeks, Single Group vs Combination Group (Example 1). The arrangement: key to Scores of voiding symptoms (2) (4) (7) / Scores of voiding symptoms (2) (4) (7), Change / Total scores of I-PSS / Scores of storage symptoms (1) (3) (5) (6) / Scores of storage symptoms (1) (3) (5) (6), Change: summed item scores, each 0-5; higher = worse symptoms. The format is in vivo. An excerpt: I-PSS is one of the criteria to evaluate the severity of the foregoing lower urinary tract symptoms by scoring responses to the following questions:
(2) During the last month, have you had to urinate again in less than two hours after you last urinated? (3) During the last month, have you experienced interrupted urination? (4) During the last month, have you found it difficult to postpone urination? […] (6) During the last month, have you had to strain to urinate? (7) During the last month, how many times did you typically have to get up to urinate after you went to bed until you got up in the morning?
The indices (1), (3), (5) and (6) evaluate voiding symptoms, and indices (2), (4) and (7) evaluate storage symptoms. Among these, responses to (1)-(6) are scored: 0 if the response was not at all, 1 if fewer than 1 time in 5, 2 if fewer than 1 time in 2, 3 if about 1 time in 2, 4 if more than 1 time in 2, and 5 if almost always. Additionally, the responses to (7) are respectively scored: 0, 1, 2, 3, 4, and 5 if the response was none, 1 time, 2 times, 3 times, 4 times, and 5 times or more.
Male human patients with prostatic hypertrophy who still had symptoms of overactive bladder (urgency, pollakiuria, urinary incontinence and/or nocturia, and the like.) after treatment with an α receptor antagonist for four weeks or longer were allocated for administration to two treatment groups: (1) tamsulosin hydrochloride 0.2 mg (hereinafter referred to as “Single Group”), and (2) tamsulosin hydrochloride 0.2 mg and solifenacin succinate 2.5 mg (hereinafter referred to as “Combination Group”), and then their symptoms were evaluated by I-PSS after four weeks of treatment. In Table 1 since the score of I-PSS becomes greater as the symptom worsens, greater minus change in scores indicates greater efficacy for the symptoms.

Where [3] appears, read: After treatment of 4 weeks, tamsulosin hydrochloride 0.2 mg alone or with solifenacin succinate 2.5 mg.
The mark [4] stands for this setting: Before treatment, tamsulosin hydrochloride 0.2 mg alone or with solifenacin succinate 2.5 mg.
Where [5] appears, read: Change after 4 weeks, tamsulosin hydrochloride 0.2 mg alone or with solifenacin succinate 2.5 mg.

Structures can show the parent of a compound that is named as a salt.

Consider `COc1cc2nc(N3CCN(C(=O)C4COc5ccccc5O4)CC3)nc(N)c2cc1OC` (centres unmarked) [doxazosin], for which, in data set [1] (in vivo), the “improvement of the storage symptom score” value is 2.9 points, the “improvement of the total I-PSS” value is listed as 7.3 points and the “improvement of the voiding symptom score” value is given as 4.5 points.
For `CCCOC(C(=O)OC1CCN(C)CC1)(c1ccccc1)c1ccccc1` [Propiverine], in data set [1] (added to doxazosin), the “acute urinary retention (AUR)” value is listed as “no acute AUR was observed” and the “effect on the urinary flow rate” value is “did not affect”.
For the compound `CCOc1ccccc1OCCN[C@H](C)Cc1ccc(OC)c(S(N)(=O)=O)c1` [Single, (R)-5-(2-{[2-(2-ethoxyphenoxy)ethyl]amino}propyl-2-methoxybenzene-1-sulfonamide hydrochloride], in data set [2] (setting [3]), the “Scores of storage symptoms (1) (3) (5) (6)” value stood at 5.8, the “Scores of voiding symptoms (2) (4) (7)” value is 4.2 and the “Total scores of I-PSS” value stood at 10.8. In addition, in data set [2] (Before treatment, tamsulosin hydrochloride 0.2 mg alone (Single) or with solifenacin succinate 2.5 mg (Combination)), the “Total scores of I-PSS” value stood at 11.6. In addition, in data set [2] (setting [4]), the “Scores of storage symptoms (1) (3) (5) (6)” value was 6.5 and the “Scores of voiding symptoms (2) (4) (7)” value is reported as 4.2. In addition, in data set [2] (setting [5]), the “Scores of storage symptoms (1) (3) (5) (6), Change” value is −0.7; the “Scores of voiding symptoms (2) (4) (7), Change” value is reported as 0.0; the “Total scores of I-PSS, Change” value is listed as −0.8.

The values above are taken from US20100331361A1, “PHARMACEUTICAL COMPOSITION CONTAINING ALPHA-ADRENERGIC RECEPTOR ANTAGONIST AND AN ANTI-MUSCARINIC AGENT AND METHOD OF IMPROVING LOWER URINARY TRACT SYMPTOMS ASSOCIATED WITH PROSTATIC HYPERTROPHY” (ASTELLAS PHARMA INC., priority 2007, published 2010).
